Data: PMC6271220, “Synthesis, Molecular Docking and Biological Evaluation of Glycyrrhizin Analogs as Anticancer Agents Targeting EGFR” (Molecules, 2014)

Legend:
[1] = tested on: EAC (Ehrlich ascites carcinoma cell line); experiment: Survival of EAC tumor-bearing mice; format: in vivo, Kunming mice; settings: for Survival time: control 16.40 ± 2.07 d; for Survival rate: percentage increase in life span vs control
Method: (§1) Kunming mice (SPF, male or female, 20 ± 2 g) were purchased from the experimental animal center of China Pharmaceutical University. Animals were housed in a temperature (22 ± 2 °C) and relatively humidity (50%)-controlled room on a 12 h light/dark cycle, given free access to food and water, and acclimatized for at least one week prior to use. All the animal experiments were performed in accordance with the Regulations of the Experimental Animal Administration issued by the State Committee of Science and Technology of China.
(§2) Cell lines used for evaluation of the in vivo antitumor activity in this study included three tumor cell lines, namely S180 (sarcoma tumer cell line), HepG2 (liver carcinoma cell line), EAC (Ehrlich ascites carcinoma cell line). All of cell lines were purchased by the Shanghai Institutes for Biological Sciences, Chinese Academy of Sciences, and the cells were cultured in RPMI-1640 medium, which was supplemented with 10% heat-inactivated fetal bovine serum, 100 U/mL penicillin and 100 U/mL streptomycin and cultured in an atmosphere of 5% CO2 at 37 °C. Cells were collected for the experiments in the logarithmic growth phase.
(§3) To establish the tumor-bearing mouse model, the cell lines were harvested and inoculated subcutaneously into the right armpit region of the mice. On the 7th day, the tumor ascrites were obtained and washed with sterile PBS. Under sterile condition, the tumor ascrites were diluted with sterile nomal saline to 1 × 10^10 /L cell suspension. Tumor ascites were maintained in vivo in mice by transplantation of 0.2 mL of ascites (2 × 10^6 cells) from the infected mice to the non-infected mice.
(§4) Each Kunming mouse (male or female, weight 20 ± 2 g) were inoculated with seven-day-old ascrite (0.2 mL, 2 × 10^6 cells) subcutaneously into the right front armpit. 24 h after implantation of tumor cells, the mice were randomly divided into five test groups with 10 mice per group. Each mouse was weighed immediately after inoculation. The mice were treated by oral gavage with test samples (60 mg/kg/day) or normal saline (NS, 10 mL/kg) for ten days once daily. On day 11, the mice were sacrificed via cervical dislocation, and the mouse and tumor were excised and weighed for evaluating the tumor growth inhibition. The tumor inhibitory rate was calculated by the following formula: [drawing 5] (1) where Wcontrol and Wtreated were the average tumor weights of the control and treated mice, respectively. […] The effect of glycyrrhizin analogs on percentage increases in life span was calculated on the basis of mortality of the experimental mice: […]

[2] = tested on: HeLa (cervix of uterus adenocarcinoma); experiment: CCK-8 anti-proliferative assay, HeLa; format: cell-based; settings: Homo sapiens, CCK-8 assay, average of three independent experiments in triplicate
Method: (§5) CCK8 is much more convenient and helpful than MTT for analyzing cell proliferation, because it can be reduced to soluble formazan by dehydrogenase in mitochondria and has little toxicity to cells. Cell proliferation was determined using CCK8 dye (BeyotimeInst Biotech, Shanghai, China) according to manufacturer’s instructions. Briefly, 1–5 × 10^3 cells per well were seeded in a 96-well plate, grown at 37 °C for 12 h, Subsequently, cells were treated with compounds at increasing concentrations in the presence of 10% FBS for 24 or 48 h. After 10 µL CCK8 dye was added to each well, cells were incubated at 37 °C for 1–2 h and Plates were read in a Victor-V multilabel counter (Perkin-Elmer, Waltham, MA, USA) using the default europium detection protocol. Percent inhibition or IC50 values of compounds were calculated by comparison with DMSO-treated control wells.

[3] = tested on: HepG2 (liver carcinoma cell line); experiment: In vivo tumor xenograft model, HepG2 tumor-bearing mice; design: species or system Kunming mice; settings: 60 mg/kg/day oral gavage, ten days; for Inhibition rate: from average tumor weights vs control
Method: as §1, §2, §3, §4

[4] = tested on: S180 (sarcoma tumer cell line); experiment: In vivo tumor xenograft model, S180 tumor-bearing mice; design: species or system Kunming mice; settings: 60 mg/kg/day oral gavage, ten days; for Inhibition rate: from average tumor weights vs control
Method: as §1, §2, §3, §4

[5] = tested on: HepG2 (hepatocellular carcinoma); experiment: CCK-8 anti-proliferative assay, HepG2; format: cell-based; settings: Homo sapiens, CCK-8 assay, average of three independent experiments in triplicate
Method: as §5

A549 (lung carcinoma) = experiment: CCK-8 anti-proliferative assay, A549; format: cell-based; settings: Homo sapiens, CCK-8 assay, average of three independent experiments in triplicate
Method: as §5

EGFR = target: T1, EGFR (Homo sapiens, UniProt P00533); experiment: EGFR kinase autophosphorylation assay (DELFIA/time-resolved fluorometry); format: biochemical; settings: in vitro EGFR enzyme inhibition
T1 construct: EGFR cytoplasmic domain (EGFR-CD, amino acids 645–1186); (His)6 (N); made in house; host or cells: Sf-9 insect cells (baculovirus)
Method: A sequence that encodes (His)6 was located at the 5′ upstream to the EGFR sequences. Sf-9 cells were infected for 3 days for protein expression. Sf-9 cell pellets were solubilized at 0 °C in a buffer at pH 7.4 containing 50 mM HEPES, 10 mM NaCl, 1% Triton, 10 µM ammonium molybdate, 100 µM sodium vanadate, 10 µg/mL aprotinin, 10 µg/mL leupeptin, 10 µg/mL pepstatin, and 16 µg/mL benzamidine HCl for 20 min followed by 20 min centrifugation. Crude extract supernatant was passed through an equilibrated Ni-NTA superflow packed column and washed with 10 mM and then 100 mM imidazole to remove nonspecifically bound material. Histidine tagged proteins were eluted with 250 and 500 mM imidazole and dialyzed against 50 mM NaCl, 20 mM HEPES, 10% glycerol, and 1 µg/mL each of aprotinin, leupeptin and pepstatin for 2 h. The entire purification procedure was performed at 4 °C or on ice.
EGFR kinase assays were set up to assess the level of autophosphorylation based on DELFIA/Time-Resolved Fluorometry. All compounds were dissolved in 100% DMSO and diluted to the appropriate concentrations with 25 mM HEPES at pH 7.4. In each well, 10 µL compound was incubated with 10 µL (5 ng for EGFR) recombinant enzyme (1:80 dilution in 100 mM HEPES) for 10 min at room temperature. Then, 10 µL of 5 mM buffer (containing 20 mM HEPES, 2 mM MnCl2, 100 µM Na3VO4 and 1 mM DTT) and 20 µL of 0.1 mM ATP–50 mM MgCl2 were added for 1 h. Positive and negative controls were included in each plate by incubation of enzyme with or without ATP–MgCl2. At the end of incubation, liquid was aspirated, and plates were washed three times with wash buffer. A 75 µL (400 ng) sample of europium labeled anti-phosphotyrosine antibody was added to each well for another 1 h of incubation. After washing, enhancement solution was added and the signal was detected by Victor (Wallac Inc., Gaithersburg, MD, USA) with excitation at 340 nm and emission at 615 nm. The percentage of auto-phosphorylation inhibition by the compounds was calculated using the following formula: 100% − [(negative control)/(positive control − negative control)]. The IC50 was obtained from curves of percentage inhibition with eight concentrations of compound.

T1 sequence (P00533 669-1210): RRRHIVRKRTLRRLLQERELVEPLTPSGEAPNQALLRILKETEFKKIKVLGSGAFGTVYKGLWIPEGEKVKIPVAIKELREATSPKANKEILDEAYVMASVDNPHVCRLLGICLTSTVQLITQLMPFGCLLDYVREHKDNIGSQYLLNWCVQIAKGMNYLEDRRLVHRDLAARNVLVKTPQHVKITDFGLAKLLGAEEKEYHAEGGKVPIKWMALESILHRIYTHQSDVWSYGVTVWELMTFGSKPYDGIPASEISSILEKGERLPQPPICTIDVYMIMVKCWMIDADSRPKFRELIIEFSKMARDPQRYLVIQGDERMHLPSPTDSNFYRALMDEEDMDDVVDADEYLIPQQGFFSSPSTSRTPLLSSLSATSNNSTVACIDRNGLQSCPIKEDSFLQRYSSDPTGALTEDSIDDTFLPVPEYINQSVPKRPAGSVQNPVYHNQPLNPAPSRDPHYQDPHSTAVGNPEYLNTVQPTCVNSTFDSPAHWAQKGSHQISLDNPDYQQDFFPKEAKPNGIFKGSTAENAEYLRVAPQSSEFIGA

Row | Structure (SMILES) | Survival time [1] [days] | Survival rate [1] [%] | IC50 [2] [µM] | Body weight End [3] [g] | Tumor weight [3] [g] | Inhibition rate [3] [%] | Body weight End [4] [g] | Tumor weight [4] [g] | Inhibition rate [4] [%] | IC50 [5] [µM] | IC50 (A549 (lung carcinoma)) [µM] | IC50 (EGFR) [µM]
1 | CC1(C)[C@@H](O[C@H]2O[C@H](C(=O)O)[C@@H](O)[C@H](O)[C@H]2O[C@@H]2O[C@H](C(=O)O)[C@@H](O)[C@H](O)[C@H]2O)CC[C@]2(C)[C@H]3C(=O)C=C4[C@@H]5C[C@@](C)(C(=O)O)CC[C@]5(C)CC[C@@]4(C)[C@]3(C)CC[C@@H]12 [18β-GA, Glycyrrhizin] | 19.40 ± 3.77 | 18.3 | 18.9 | 26.94 ± 2.05 | 1.26 ± 0.65 | 35.4 | 24.48 ± 2.37 | 1.33 ± 0.67 | 30.4 | 63.6 | 51.9 | 0.092
2 | C#Cc1cccc(Nc2ncnc3cc(OCCOC)c(OCCOC)cc23)c1 [Erlotinib, reference compound] |  |  | 0.2 |  |  |  |  |  |  | 0.12 | 0.13 | 
3 | CC1(C)[C@@H](O[C@@H]2O[C@H](C(=O)O)[C@@H](O)[C@H](O)[C@H]2O)CC[C@]2(C)[C@H]3C(=O)C=C4[C@@H]5C[C@@](C)(C(=O)O)CC[C@]5(C)CC[C@@]4(C)[C@]3(C)CC[C@@H]12 [18β-GAMG, glycyrrhetic acid 3-O-mono-β-D-glucuronide] | 21.05 ± 4.65 | 28.4 | 8.39 | 27.8 ± 1.57 | 1.20 ± 0.35 | 38.4 | 25.02 ± 2.58 | 1.25 ± 0.19 | 34.6 | 33.6 | 21.6 | 0.069
4 | CC1(C)[C@@H](O[C@@H]2O[C@H](C(=O)O)[C@@H](O)[C@H](O)[C@H]2O)CC[C@]2(C)[C@H]3C(=O)C=C4[C@H]5C[C@@](C)(C(=O)O)CC[C@]5(C)CC[C@@]4(C)[C@]3(C)CC[C@@H]12 [18α-GAMG] | 23.85 ± 5.41 | 45.4 | 7.43 | 27.02 ± 2.10 | 0.98 ± 0.43 | 49.7 | 25.25 ± 1.80 | 1.15 ± 0.50 | 39.8 | 6.67 | 15.8 | 0.028
5 | CC1(C(=O)O)CCC2(C)CCC3(C)C(=CC(=O)C4C5(C)CCC(OC6OC(C(=O)O)C(O)C(O)C6OC6OC(C(=O)O)C(O)C(O)C6O)C(C)(C)C5CCC43C)C2C1 (stereo not drawn) [18α-GA, 18α-Glycyrrhizin] | 19.75 ± 3.08 | 20.4 | 15.1 | 26.08 ± 1.26 | 1.22 ± 0.46 | 37.4 | 25.20 ± 1.11 | 1.29 ± 0.47 | 32.5 | 54.2 | 41.6 | 0.081
